Reference: patent US10022326B2, “Liposomal compositions of epoxyketone-based proteasome inhibitors” (ONYX THERAPEUTICS, INC., priority 2012, dated 2018)

Biological target: T1, chymotrypsin-like activity of the proteasome (Mus musculus, UniProt O55234)
T1 construct: measurement of proteasome activity in whole blood (primarily erythrocytes); from tissue; host or cells: whole blood (primarily erythrocytes), adrenal, liver and heart of BALB/C mice
T1 sequence (O55234 60-264): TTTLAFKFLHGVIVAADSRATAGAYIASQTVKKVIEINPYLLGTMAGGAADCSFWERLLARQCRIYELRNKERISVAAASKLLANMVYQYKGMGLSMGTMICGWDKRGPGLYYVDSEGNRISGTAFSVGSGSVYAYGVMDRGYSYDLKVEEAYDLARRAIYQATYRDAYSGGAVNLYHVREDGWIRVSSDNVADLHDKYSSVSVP
Assay: Pharmacodynamic response: proteasome activity in whole blood, adrenal, liver and heart (LLVY-AMC substrate)
Type: in vivo, BALB/C mice
Settings: mice, single i.v. dose, whole blood (primarily erythrocytes), up to 24 hours
Experimental: The pharmacodynamic response of carfilzomib formulated in SBE-B-CD (CFZ SBE-B-CD) (using a non-liposomal, injectable composition of carfilzomib formulated in 10% sulfobutylether beta cyclodextrin (SBE-B-CD), 10 mM Citrate, pH 3.5 (see, e.g., U.S. Patent Publication Nos. 2011/0236428)), empty liposomes (Composition D), liposomes comprising CFZ (L-CFZ, Composition C), and pegylated liposomes comprising (pL-CFZ, Composition E) was evaluated in BALB/C mice following a single intravenous bolus administration.
The mice (three mice per time point) were administered a dose of 10 mg/kg in a dose volume of 5 mL/kg. […] The pharmacodynamic response was determined by measurement of proteasome activity in whole blood (primarily erythrocytes) (see FIG. 2A), adrenal (see FIG. 2B), liver (see FIG. 2C), and heart (see FIG. 2D), using a fluorogenic substrate (LLVY-AMC [Leu-Leu-Val-Tyr-AMC {AMC=7-amido 4-methylcoumarin}]; as described by Lightcap E S, McCormack T A, Pien C S, et al., Clin. Chem. 46:673-683 (2000)) to quantitate the chymotrypsin-like activity of the proteasome. […] Three tissue samples were evaluated per time point for each tissue from each mouse.
The pharmacodynamic response of liposomal compositions comprising liposomes comprising an aqueous core loaded with CFZ complexed with SBE-B-CD was evaluated in BALB/C mice following a single intravenous bolus administration. […]

- recovery of proteasome activity in blood: no recovery
SMILES: CC(C)C[C@H](NC(=O)[C@H](CCc1ccccc1)NC(=O)CN1CCOCC1)C(=O)N[C@@H](Cc1ccccc1)C(=O)N[C@@H](CC(C)C)C(=O)[C@@]1(C)CO1 [carfilzomib]
